# Literature values, collected in patent publication US20210308040A1, “KETAMINE ORAL TRANSMUCOSAL DELIVERY SYSTEM” (GUANGZHOU DAZHOU BIOMEDICINE LTD., priority 2018, published 2021).
# Columns and labels:
# NMDAR = conditions: rodent species
# [1] = 0 to 24 hours postoperatively; bolus 0.5 mg/kg and infusion 0.25 mg/kg/hr
# orofacial pain = conditions: fixed doses
# [2] = system: experimentally induced ischemic pain
# NMDA receptor = conditions: in vitro
# [3] = ketamine 0.3 mg/kg vs morphine 0.1 mg/kg, intravenous push
# [4] = not given; remark: listed apart in the source
# [5] = not given; remark: listed apart in the source
# [6] = 33 CRPS patients; about 23 mg/hr for about 4.7 days
# [7] = in vivo
smiles,measurement,setting,value
C[C@]12N[C@H](Cc3ccccc31)c1ccccc12 [MK-801],effect on analgesia,NMDAR,anti-analgesic effect
CN[C@@]1(c2ccccc2Cl)CCCCC1=O [R-ketamine],psychotomimetic side effects and abuse liability,animal models,free of psychotomimetic side effects and abuse liability
same,antidepressant effectiveness versus S-ketamine,model animal studies,more effective as an antidepressant than S-ketamine
CN[C@]1(c2ccccc2Cl)CCCCC1=O [S-ketamine],mean difference in morphine consumption versus placebo,[1],42 mg
same,potency relative to racemic ketamine,orofacial pain,2 times
same,in vivo potency difference between the two enantiomers,[2],about 4 times
same,potency in NMDAR binding relative to R-ketamine,NMDA receptor,about 4 times
CNC1(c2ccccc2Cl)CCCCC1=O (racemic) [ketamine],primary change in mean pain scores versus morphine,[3],no significant differences
same,indications of liver toxicity,"[4]; 39 clinical trials, IV infusion rate less than 1.2 mg/kg/h, bolus less than 1 mg/kg",no indications of liver toxicity
same,reduction of opioid consumption,[4]; low-dose intravenous (IV) ketamine,40%
same,absolute oral bioavailability,[5]; humans,10-20%
same,half-life,[5]; in vivo,2 to 3 h
same,systemic (primarily hepatic) clearance,[5]; in vivo,about 19 ml/min·kg
same,mean immediate response (% relief),[6],≤ 92%
same,patients with alteration in hepatic enzyme profile,[6],four patients
same,patients with hallucinations,[6],six patients
same,onset of antidepressant effect after administration,[7],≤ 2 h
